Measured values as given in PMC6813295, “A tumour-selective cascade activatable self-detained system for drug delivery and cancer imaging” (Nature Communications, 2019).
Where a SMILES comes first, the peptide text is derived from it. The star is where a group is joined. X1 = CC1(C)C(=CC=C2CCCC(C=CC3=[N+](CCCCCC(=O)O)c4ccccc4C3(C)C)=C2*)N(CCCCCC(=O)O)c2ccccc21

Assays:
H460 tumour-bearing mice = assay: Tumour penetration, distance from CD31-stained vessels in frozen tumour sections; format: in vivo, mouse
Protocol: Fig. 5 Tumour penetrations of TCASS. a 3D reconstruction PA images of tumour-bearing mice injected with molecule 1, SiO2 nanoparticles (SiO2 NPs) and liposome labelled by Cy. The degrees of penetration into the tumour were calculated. To better illustrate the penetration extent of molecule 1, SiO2 nanoparticles (SiO2 NPs) and liposome labelled by Cy, the tumour tissue was divided into five parts with identical radius intervals, which indicated the trend from the tumour edge to the interior (the red dashed circles show the tumour margin, and the grey dashed circles show the normalized distance from the tumour edge). b Quantification of the PA signal intensity. The PA intensity in the intratumoural distribution area between neighbouring polygons was normalized by the corresponding area. Data are presented as the mean ± s.d. (n = 3). ***p < 0.001, p values were performed with one-way ANOVA followed by post hoc Tukey’s test for the indicated comparison. c Frozen sections of tumour removed after treatment with molecule 1, SiO2 NPs and liposome labelled by Cy for 12 h. The tumour cell nucleus and vessels were stained with DAPI and FITC-tagged CD31 antibody, respectively. d Quantification of the penetrative distance of molecule 1, SiO2 NPs and liposome labelled by Cy from the tumour vessels. Data are presented as the mean ± s.d. (n = 8). ***p < 0.001, p values were performed with one-way ANOVA followed by post hoc Tukey’s test for the indicated comparison. Scale bar: a 2 mm; c 50 μm
All animal experiments were performed as previously described. H460 cells were also subcutaneously implanted on the right flank of xenografts mice. After the tumour had developed, Molecule 1 (14 mg/kg, n = 3), liposome and SiO2 nanoparticles labelled by Cy (the same molar amount of Cy, n = 3) dissolved into PBS was intravenously injected through tail vein of mice. The control group was PBS at the same conditions. […] In order to quantify the PA signal intensity, the intratumoral distribution area was normalized with the tumour regions.

[1] = Self-assembly behaviour in water (CD, TEM); format: physicochemical
Protocol: Fig. 2 The structure conformations and self-assembly properties of molecule 1 in aqueous solution. a Illustration of the self-assembly strategy of molecule 1. b CD spectra of molecule 1 and molecule 4 in deionized water at a concentration of 1 μM. c FTIR spectra of molecule 1 in a monomeric state and molecule 4 in a fibrous assembled state. The arrows identify the typical characteristic peaks of the antiparallel β-sheet structure. d TEM image of self-assembled β-sheet nanofibrils of molecule 1 after treatment with caspase-3 (substrate-to-enzyme ratio of 1 μM/U) in HEPES buffer (50 mM, pH 7.4) for 2 h. The manual measurement of the nanofibril diameter is shown in the zoomed image, and the computational simulation result for the length of molecule 4 is inserted. e WAXS and computational simulation results of the β-sheet self-assemblies (molecule 4) identified the β-sheet and laminate spacing of the structures. f The concentration-dependent CD spectra of molecule 4 in the concentration range of 0.5–10 μM. g Time-dependent TEM images of molecule 4 from 10 min to 12 h for monitoring the growth process of the nanofibrous structures. h Temperature-dependent CD intensity changes at 220 nm of molecules 1 and 4 with a heating rate of 1 °C/min and an equilibrium period of 30 s to reveal the self-assembly mechanisms. Scale bar: 100 nm […]
microscopy (UltraVIEW VoX). […]

SMILES: CC[C@H](C)[C@H](NC(=O)[C@@H]1CCCN1C(=O)[C@@H](NC(=O)[C@H](C)N)C(C)C)C(=O)N[C@@H](C)C(=O)N[C@@H](CCC(N)=O)C(=O)N[C@@H](CCCCN)C(=O)N[C@@H](CC(=O)O)C(=O)N[C@@H](CCC(=O)O)C(=O)N[C@H](C(=O)N[C@@H](CC(=O)O)C(=O)N[C@@H](CCCCN)C(=O)N[C@@H](CC(C)C)C(=O)N[C@H](C(=O)N[C@@H](Cc1ccccc1)C(=O)N[C@@H](Cc1ccccc1)C(=O)N[C@@H](C)C(=O)N[C@@H](CCC(=O)O)C(=O)N[C@@H](CSC1=C(C=CC2=[N+](CCCCCC(=O)O)c3ccccc3C2(C)C)CCCC1=CC=C1N(CCCCCC(=O)O)c2ccccc2C1(C)C)C(=O)NCC(=O)O)C(C)C)C(C)C [molecule 1] (H-AVPIAQKDEVDKLVFFAEC(X1)G-OH)
- penetrative distance of signal from the tumour blood vessels (H460 tumour-bearing mice; 12 h post IV injection, 14 mg/kg or same molar amount of Cy, frozen sections, mean ± s.d. n = 8): approximately 67.4 ± 10.3 μm
- penetration distance of molecule 1 relative to SiO2 nanoparticles (H460 tumour-bearing mice; 12 h post injection): ~10 times
- penetration distance of molecule 1 relative to liposomes (H460 tumour-bearing mice; 12 h post injection): approximately 13 times
- secondary structure by CD ([1]; 1 μM in deionized water): random coiled conformation
- state in water (dissolved or fibrous structures; TEM, CD) ([1]; deionized water, same conditions, TEM 50 μM, from 1% HFIP, 24 h): well-dissolved
